In PubChem BioAssay AID328 (DTP/NCI, 2004):
Where “and” joins values, the source holds several entries; their conditions need not be identical. Equal entries are not always repeated. Toxic doses and inconclusive results are not listed. Rule for the calls: active = survival T/C of 150% or more; inactive = T/C below 125% in these data.

Test system: BDF1 mice, P388 leukemia ip, median survival T/C
Experiment: NCI In Vivo Anticancer Drug Screen. Data for tumor model P388 Leukemia (intraperitoneal) in B6D2F1 (BDF1) mice
Conditions: endpoint: median survival time, higher = longer survival
Method in brief: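 Compound-treated tumour-bearing mice were compared with vehicle-treated controls. Survival was recorded, and the value is the treated-group measurement divided by the control-group measurement (T/C).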

[1] = dose: 1.56 mg/kg/injection, schedule: Q01DX009 (ip), vehicle: saline with Tween-80
[2] = dose: 6.25 mg/kg/injection, schedule: Q01DX009 (ip), vehicle: saline with Tween-80
[3] = dose: 12.5 mg/kg/injection, schedule: Q01DX009 (ip), vehicle: saline with Tween-80
[4] = dose: 100.0 mg/kg/injection, schedule: Q01DX009 (ip), vehicle: Klucel (hydroxypropylcellulose) (HPC)
[5] = dose: 100.0 mg/kg/injection, schedule: Q04DX003 (ip), vehicle: Klucel (hydroxypropylcellulose) (HPC)
[6] = dose: 200.0 mg/kg/injection, schedule: Q04DX003 (ip), vehicle: Klucel (hydroxypropylcellulose) (HPC)
[7] = dose: 400.0 mg/kg/injection, schedule: Q04DX003 (ip), vehicle: Klucel (hydroxypropylcellulose) (HPC)
[8] = dose: 50.0 mg/kg/injection, schedule: Q01DX009 (ip), vehicle: saline with Tween-80
[9] = dose: 100.0 mg/kg/injection, schedule: Q01DX009 (ip), vehicle: saline with Tween-80
[10] = dose: 200.0 mg/kg/injection, schedule: Q01DX009 (ip), vehicle: saline with Tween-80
[11] = dose: 25.0 mg/kg/injection, schedule: Q01DX009 (ip), vehicle: saline
[12] = dose: 25.0 mg/kg/injection, schedule: Q04DX003 (ip), vehicle: saline

Measured: T/C

NC(=O)NN=C1CSSC1
inactive: dose: 0.78 mg/kg/injection, schedule: Q01DX009 (ip), vehicle: saline with Tween-80 103 % of control | dose: 0.78 mg/kg/injection, schedule: Q04DX003 (ip), vehicle: saline with Tween-80 104 % of control | [1] 94 % of control | dose: 1.56 mg/kg/injection, schedule: Q04DX003 (ip), vehicle: saline with Tween-80 91 % of control | dose: 3.12 mg/kg/injection, schedule: Q01DX009 (ip), vehicle: saline with Tween-80 92 % of control | dose: 3.12 mg/kg/injection, schedule: Q04DX003 (ip), vehicle: saline with Tween-80 113 % of control | [2] 92 % of control | dose: 6.25 mg/kg/injection, schedule: Q04DX003 (ip), vehicle: saline with Tween-80 100 % of control | [3] 94 % of control | dose: 12.5 mg/kg/injection, schedule: Q04DX003 (ip), vehicle: saline with Tween-80 95 % of control

N#CC(=C1C=CC(=NO)C=C1)c1ccc(Cl)cc1
inactive: dose: 25.0 mg/kg/injection, schedule: Q01DX009 (ip), vehicle: Klucel (hydroxypropylcellulose) (HPC) 114 % of control | dose: 25.0 mg/kg/injection, schedule: Q04DX003 (ip), vehicle: Klucel (hydroxypropylcellulose) (HPC) 102 % of control | dose: 50.0 mg/kg/injection, schedule: Q01DX009 (ip), vehicle: Klucel (hydroxypropylcellulose) (HPC) 114 % of control | dose: 50.0 mg/kg/injection, schedule: Q04DX003 (ip), vehicle: Klucel (hydroxypropylcellulose) (HPC) 98 % of control | [4] 117 % of control | [5] 110 % of control | [6] 122 % of control | [7] 113 % of control

CCCCSc1cc(Cc2cc(C)ccc2O)c(O)c(Cc2cc(C)ccc2O)c1
inactive: dose: 50.0 mg/kg/injection, schedule: Q01DX009 (ip), vehicle: other 107 % of control | dose: 100.0 mg/kg/injection, schedule: Q01DX009 (ip), vehicle: other 107 % of control

COc1cc2ccc(C(C)NCC(=O)O)cc2cc1OC (configuration not stated)
inactive: [4] 100 % of control | [5] 100 % of control | dose: 200.0 mg/kg/injection, schedule: Q01DX009 (ip), vehicle: Klucel (hydroxypropylcellulose) (HPC) 104 % of control | [6] 100 % of control | dose: 400.0 mg/kg/injection, schedule: Q01DX009 (ip), vehicle: Klucel (hydroxypropylcellulose) (HPC) 109 % of control | [7] 109 % of control

CCc1oc(=O)c(Cc2c(OC(C)=O)cc(OC(C)=O)c3c2OC(c2ccccc2)CC3=O)c(OC(C)=O)c1C (configuration not stated)
inactive: dose: 1.0 mg/kg/injection, schedule: Q01DX009 (ip), vehicle: Klucel (hydroxypropylcellulose) (HPC) 99 % of control | dose: 2.0 mg/kg/injection, schedule: Q01DX009 (ip), vehicle: Klucel (hydroxypropylcellulose) (HPC) 92 % of control | dose: 4.0 mg/kg/injection, schedule: Q01DX009 (ip), vehicle: Klucel (hydroxypropylcellulose) (HPC) 93 % of control | dose: 8.0 mg/kg/injection, schedule: Q01DX009 (ip), vehicle: Klucel (hydroxypropylcellulose) (HPC) 92 % of control

O=C(/C=C/c1ccc(OCc2ccccc2)cc1)c1cccc(Cl)c1
inactive: [8] 105 % of control | [9] 96 % of control | [10] 89 % of control

CN(C)c1ccc2nc3ccc(=[N+](C)C)cc-3sc2c1
inactive: dose: 2.5 mg/kg/injection, schedule: Q01DX009 (ip), vehicle: saline 113 % of control | dose: 5.0 mg/kg/injection, schedule: Q01DX009 (ip), vehicle: saline 104 % of control | dose: 7.2 mg/kg/injection, schedule: Q04DX003 (ip), vehicle: saline 110 % of control | dose: 10.0 mg/kg/injection, schedule: Q01DX009 (ip), vehicle: saline 122 % of control | dose: 10.0 mg/kg/injection, schedule: Q04DX003 (ip), vehicle: saline 110 % of control | dose: 11.5 mg/kg/injection, schedule: Q04DX003 (ip), vehicle: saline 100 % of control | dose: 12.5 mg/kg/injection, schedule: Q01DX009 (ip), vehicle: saline 100 % of control | dose: 16.5 mg/kg/injection, schedule: Q01DX009 (ip), vehicle: saline 95 % of control and 100 % of control | dose: 20.0 mg/kg/injection, schedule: Q01DX009 (ip), vehicle: saline 104 % of control | [11] 100 % of control and 104 % of control | dose: 37.5 mg/kg/injection, schedule: Q01DX009 (ip), vehicle: saline 95 % of control | dose: 37.5 mg/kg/injection, schedule: Q04DX003 (ip), vehicle: saline 100 % of control

O=C1/C(=C/c2ccc(Cl)cc2Cl)CCC/C1=C\c1ccc(Cl)cc1Cl
inactive: dose: 25.0 mg/kg/injection, schedule: Q01DX009 (ip), vehicle: saline with Tween-80 88 % of control | [8] 100 % of control | [9] 88 % of control

CN=C1N[N+]2=C(C)CCCC2(C)S1 (configuration not stated)
inactive: [11] 100 % of control | dose: 50.0 mg/kg/injection, schedule: Q01DX009 (ip), vehicle: saline 103 % of control | dose: 100.0 mg/kg/injection, schedule: Q01DX009 (ip), vehicle: saline 99 % of control

Cc1ccc(S(=O)(=O)OC2CCN(C)CC2)cc1
inactive: dose: 3.0 mg/kg/injection, schedule: Q04DX003 (ip), vehicle: saline 100 % of control | dose: 6.0 mg/kg/injection, schedule: Q04DX003 (ip), vehicle: saline 95 % of control | dose: 12.0 mg/kg/injection, schedule: Q04DX003 (ip), vehicle: saline 100 % of control | [12] 100 % of control

COc1ccc2c3c1OC1C(Oc4nnnn4-c4ccccc4)C=CC4C(C2)N(C)CCC341 (configuration not stated)
inactive: dose: 12.5 mg/kg/injection, schedule: Q04DX003 (ip), vehicle: saline 105 % of control | [12] 113 % of control | dose: 50.0 mg/kg/injection, schedule: Q04DX003 (ip), vehicle: saline 99 % of control | dose: 100.0 mg/kg/injection, schedule: Q04DX003 (ip), vehicle: saline 103 % of control | dose: 200.0 mg/kg/injection, schedule: Q04DX003 (ip), vehicle: saline 103 % of control | dose: 400.0 mg/kg/injection, schedule: Q04DX003 (ip), vehicle: saline 99 % of control

NC(=O)/C=C/C(=O)c1c(Cl)cccc1Cl
inactive: [1] 109 % of control and 115 % of control | dose: 3.13 mg/kg/injection, schedule: Q01DX009 (ip), vehicle: saline with Tween-80 118 % of control | [2] 123 % of control and 124 % of control | [3] 95 % of control

C#CC1(O)CCC2C3CCc4cc(OC)ccc4C3CCC21C (configuration not stated)
inactive: dose: 40.0 mg/kg/injection, schedule: Q01DX009 (sc), vehicle: saline with Tween-80 100 % of control | dose: 80.0 mg/kg/injection, schedule: Q01DX009 (sc), vehicle: saline with Tween-80 100 % of control | dose: 100.0 mg/kg/injection, schedule: Q04DX003 (sc), vehicle: saline with Tween-80 88 % of control | dose: 160.0 mg/kg/injection, schedule: Q01DX009 (sc), vehicle: saline with Tween-80 100 % of control | dose: 200.0 mg/kg/injection, schedule: Q04DX003 (sc), vehicle: saline with Tween-80 94 % of control | dose: 400.0 mg/kg/injection, schedule: Q04DX003 (sc), vehicle: saline with Tween-80 88 % of control

O=C(Nc1ccc(F)cc1)c1ccc(C(=O)Nc2ccc(F)cc2)cc1
inactive: dose: 100.0 mg/kg/injection, schedule: Q04DX003 (ip), vehicle: saline with Tween-80 108 % of control | dose: 200.0 mg/kg/injection, schedule: Q04DX003 (ip), vehicle: saline with Tween-80 91 % of control | dose: 400.0 mg/kg/injection, schedule: Q04DX003 (ip), vehicle: saline with Tween-80 91 % of control

OC12CCCCC1Cc1cc3c(cc1O2)CC1CCCCC1(O)O3 (configuration not stated)
inactive: [8] 100 % of control | [9] 93 % of control | [10] 96 % of control
